Measured values reported in patent US10798941B2, “Microbiocidal oxadiazole derivatives” (SYNGENTA PARTICIPATIONS AG, priority 2016, dated 2020).

Columns and labels:
Phakopsora pachyrhizi = Phakopsora pachyrhizi / soybean / leaf disc preventative (Asian soybean rust); format: in vivo; conditions: foliar, 288 h, 200 ppm in the applied formulation, soybean leaf disks, inoculated one day after application, assessed 12 to 14 days after application, vs untreated, read-out: disease control
Protocol: Leaf disks or leaf segments of various plant species are cut from plants grown in a greenhouse. The cut leaf disks or segments are placed in multiwell plates (24-well format) onto water agar. The leaf disks are sprayed with a test solution before (preventative) or after (curative) inoculation. Compounds to be tested are prepared as DMSO solutions (max. 10 mg/ml) which are diluted to the appropriate concentration with 0.025% Tween20 just before spraying. The inoculated leaf disks or segments are incubated under defined conditions (temperature, relative humidity, light, etc.) according to the respective test system. A single evaluation of disease level is carried out 3 to 14 days after inoculation, depending on the pathosystem. Percent disease control relative to the untreated check leaf disks or segments is then calculated.
Soybean leaf disks are placed on water agar in multiwell plates (24-well format) and sprayed with the formulated test compound diluted in water. One day after application leaf discs are inoculated by spraying a spore suspension on the lower leaf surface. After an incubation period in a climate cabinet of 24-36 hours in darkness at 20° C. and 75% rh leaf disc are kept at 20° C. with 12 h light/day and 75% rh. The activity of a compound is assessed as percent disease control compared to untreated when an appropriate level of disease damage appears in untreated check leaf disks (12 to 14 days after application).
The following compounds at 200 ppm in the applied formulation give at least 80% disease control in this test when compared to untreated control leaf disks under the same conditions, which show extensive disease development.

[1] = test system: Glomerella Lagenarium (Colletotrichum Lagenarium); test: Glomerella lagenarium (Colletotrichum lagenarium) liquid culture / cucumber / preventative (anthracnose); format: cell-based; conditions: Colletotrichum orbiculare; 20 ppm in the applied formulation; liquid culture in PDB, 24° C., inhibition of growth measured photometrically 3 to 4 days after application, vs untreated; read-out: disease control
Method in brief: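 Conidia from cryogenic storage were mixed into potato dextrose broth. This was added to compound diluted from DMSO into 0.025% Tween20, tested at 20 ppm. Plates were incubated in the dark at 24 °C and 96% relative humidity, and growth was read photometrically after 2–7 days as % activity versus untreated check.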

[2] = test system: Puccinia recondita f. Sp. Tritici; test: Puccinia recondita f. sp. tritici / wheat / leaf disc preventative (brown rust); format: in vivo; conditions: foliar, 168 h, 200 ppm in the applied formulation, wheat leaf segments cv. Kanzler, preventative, inoculated 1 day after application, assessed 7 to 9 days after application, vs untreated, read-out: disease control
Method in brief: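 Preventative leaf-segment test: spray application of diluted formulated compound on wheat cv. Kanzler, spore inoculation after 1 day. Percent control relative to untreated segments rated 7 to 9 days post-application, with incubation at 19° C, 75% relative humidity, 12 h photoperiod.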

[3] = test system: Puccinia recondita f. Sp. Tritici; test: Puccinia recondita f. sp. tritici / wheat / leaf disc curative (brown rust); format: in vivo; conditions: foliar, 144 h, 200 ppm in the applied formulation, wheat leaf segments cv. Kanzler, applied 1 day after inoculation, assessed 6 to 8 days after application, vs untreated, read-out: disease control
Method in brief: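 Compound applied 1 day after spore inoculation of wheat cv. Kanzler leaf segments on agar (dark, 19 °C, 75% RH before treatment). After further incubation under 12 h light/12 h dark at 19 °C and 75% RH, disease control relative to untreated segments rated 6–8 days post-application.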

FC(F)(F)c1nc(-c2ccc(Cn3cnc(I)c3)cc2)no1 [Compound 1.96, 3-[4-[(4-iodoimidazol-1-yl)methyl]phenyl]-5-(trifluoromethyl)-1,2,4-oxadiazole]
≥ 80%: pest or weed control at 200 ppm (Phakopsora pachyrhizi) | inhibition of growth at 20 ppm [1] | pest or weed control at 200 ppm [2] | pest or weed control at 200 ppm [3]

Cc1cc(C)n(Cc2ccc(-c3noc(C(F)(F)F)n3)cc2F)n1 [Compound 1.102, 3-[4-[(3,5-dimethylpyrazol-1-yl)methyl]-3-fluoro-phenyl]-5-(trifluoromethyl)-1,2,4-oxadiazole]
≥ 80%: pest or weed control at 200 ppm (Phakopsora pachyrhizi) | inhibition of growth at 20 ppm [1] | pest or weed control at 200 ppm [2] | pest or weed control at 200 ppm [3]

Fc1cc(-c2noc(C(F)(F)F)n2)ccc1Cn1ccnc1 [Compound 1.129, 3-[3-fluoro-4-(imidazol-1-ylmethyl)phenyl]-5-(trifluoromethyl)-1,2,4-oxadiazole]
≥ 80%: pest or weed control at 200 ppm (Phakopsora pachyrhizi) | inhibition of growth at 20 ppm [1] | pest or weed control at 200 ppm [2] | pest or weed control at 200 ppm [3]

FC(F)(F)c1nc(-c2ccc(Cn3cnc(Br)c3)nc2)no1 [Compound 1.136, 3-[6-[(4-bromoimidazol-1-yl)methyl]-3-pyridyl]-5-(trifluoromethyl)-1,2,4-oxadiazole]
≥ 80%: pest or weed control at 200 ppm (Phakopsora pachyrhizi) | inhibition of growth at 20 ppm [1] | pest or weed control at 200 ppm [2] | pest or weed control at 200 ppm [3]

O=C(O)c1cnn(Cc2ccc(-c3noc(C(F)(F)F)n3)cc2)c1 [Compound 1.147, 1-[[4-[5-(trifluoromethyl)-1,2,4-oxadiazol-3-yl]phenyl]methyl]pyrazole-4-carboxylic acid]
≥ 80%: pest or weed control at 200 ppm (Phakopsora pachyrhizi) | inhibition of growth at 20 ppm [1] | pest or weed control at 200 ppm [2] | pest or weed control at 200 ppm [3]

O=Cc1cn(Cc2ccc(-c3noc(C(F)(F)F)n3)cc2)cn1 [Compound 1.151, 1-[[4-[5-(trifluoromethyl)-1,2,4-oxadiazol-3-yl]phenyl]methyl]imidazole-4-carbaldehyde]
≥ 80%: pest or weed control at 200 ppm (Phakopsora pachyrhizi) | inhibition of growth at 20 ppm [1] | pest or weed control at 200 ppm [2] | pest or weed control at 200 ppm [3]

N#Cc1cn(Cc2ccc(-c3noc(C(F)(F)F)n3)cc2)cn1 [Compound 1.154, 1-[[4-[5-(trifluoromethyl)-1,2,4-oxadiazol-3-yl]phenyl]methyl]imidazole-4-carbonitrile]
≥ 80%: pest or weed control at 200 ppm (Phakopsora pachyrhizi) | inhibition of growth at 20 ppm [1] | pest or weed control at 200 ppm [2] | pest or weed control at 200 ppm [3]

FC(F)Sc1nc(-c2ccc(Cl)cc2)cn1Cc1ccc(-c2noc(C(F)(F)F)n2)cc1 [Compound 1.174, 3-[4-[[4-(4-chlorophenyl)-2-(difluoromethyl-sulfanyl)imidazol-1-yl]methyl]phenyl]-5-(trifluoromethyl)-1,2,4-oxadiazole]
≥ 80%: pest or weed control at 200 ppm (Phakopsora pachyrhizi) | inhibition of growth at 20 ppm [1] | pest or weed control at 200 ppm [2] | pest or weed control at 200 ppm [3]

COC(=O)c1cccc2nn(Cc3ccc(-c4noc(C(F)(F)F)n4)cc3)cc12 [Compound 1.192, methyl 2-[[4-[5-(trifluoromethyl)-1,2,4-oxadiazol-3-yl]phenyl]methyl]indazole-4-carboxylate]
≥ 80%: pest or weed control at 200 ppm (Phakopsora pachyrhizi) | inhibition of growth at 20 ppm [1] | pest or weed control at 200 ppm [2] | pest or weed control at 200 ppm [3]

Nc1nc(C(F)(F)F)nn1Cc1ccc(-c2noc(C(F)(F)F)n2)cc1 [Compound 1.200, 5-(trifluoromethyl)-2-[[4-[5-(trifluoromethyl)-1,2,4-oxadiazol-3-yl]phenyl]methyl]-1,2,4-triazol-3-amine]
≥ 80%: pest or weed control at 200 ppm (Phakopsora pachyrhizi) | inhibition of growth at 20 ppm [1] | pest or weed control at 200 ppm [2] | pest or weed control at 200 ppm [3]

CCCSc1ncn(Cc2ccc(-c3noc(C(F)(F)F)n3)cc2)n1 [Compound 1.206, 3-[4-[(3-propylsulfanyl-1,2,4-triazol-1-yl)methyl]phenyl]-5-(trifluoromethyl)-1,2,4-oxadiazole]
≥ 80%: pest or weed control at 200 ppm (Phakopsora pachyrhizi) | inhibition of growth at 20 ppm [1] | pest or weed control at 200 ppm [2] | pest or weed control at 200 ppm [3]

CCCSc1ncnn1Cc1ccc(-c2noc(C(F)(F)F)n2)cc1 [Compound 1.207, 3-[4-[(5-propylsulfanyl-1,2,4-triazol-1-yl)methyl]phenyl]-5-(trifluoromethyl)-1,2,4-oxadiazole]
≥ 80%: pest or weed control at 200 ppm (Phakopsora pachyrhizi) | inhibition of growth at 20 ppm [1] | pest or weed control at 200 ppm [2] | pest or weed control at 200 ppm [3]

CCSc1ncn(Cc2ccc(-c3noc(C(F)(F)F)n3)cc2)n1 [Compound 1.208, 3-[4-[(3-ethylsulfanyl-1,2,4-triazol-1-yl)methyl]phenyl]-5-(trifluoromethyl)-1,2,4-oxadiazole]
≥ 80%: pest or weed control at 200 ppm (Phakopsora pachyrhizi) | inhibition of growth at 20 ppm [1] | pest or weed control at 200 ppm [2] | pest or weed control at 200 ppm [3]

FC(F)(F)c1nc(-c2ccc(Cn3cnnc3SCc3ccccc3)cc2)no1 [Compound 1.213, 3-[4-[(3-benzylsulfanyl-1,2,4-triazol-4-yl)methyl]phenyl]-5-(trifluoromethyl)-1,2,4-oxadiazole]
≥ 80%: pest or weed control at 200 ppm (Phakopsora pachyrhizi) | inhibition of growth at 20 ppm [1] | pest or weed control at 200 ppm [2] | pest or weed control at 200 ppm [3]

COc1nc(N)n(Cc2ccc(-c3noc(C(F)(F)F)n3)cc2)n1 [Compound 1.214, 5-methoxy-2-[[4-[5-(trifluoromethyl)-1,2,4-oxadiazol-3-yl]phenyl]methyl]-1,2,4-triazol-3-amine]
≥ 80%: pest or weed control at 200 ppm (Phakopsora pachyrhizi) | inhibition of growth at 20 ppm [1] | pest or weed control at 200 ppm [2] | pest or weed control at 200 ppm [3]

COc1nc(N)nn1Cc1ccc(-c2noc(C(F)(F)F)n2)cc1 [Compound 1.215, 5-methoxy-1-[[4-[5-(trifluoromethyl)-1,2,4-oxadiazol-3-yl]phenyl]methyl]-1,2,4-triazol-3-amine]
≥ 80%: pest or weed control at 200 ppm (Phakopsora pachyrhizi) | inhibition of growth at 20 ppm [1] | pest or weed control at 200 ppm [2] | pest or weed control at 200 ppm [3]

CCOC(=O)c1cccnc1-c1ccn(Cc2ccc(-c3noc(C(F)(F)F)n3)cc2)n1 [Compound 1.219, ethyl 2-[1-[[4-[5-(trifluoromethyl)-1,2,4-oxadiazol-3-yl]phenyl]methyl]pyrazol-3-yl]pyridine-3-carboxylate]
≥ 80%: pest or weed control at 200 ppm (Phakopsora pachyrhizi) | inhibition of growth at 20 ppm [1] | pest or weed control at 200 ppm [2] | pest or weed control at 200 ppm [3]

Nc1nc(C(F)F)nn1Cc1ccc(-c2noc(C(F)(F)F)n2)cc1 [Compound 1.222, 5-(difluoromethyl)-2-[[4-[5-(trifluoromethyl)-1,2,4-oxadiazol-3-yl]phenyl]methyl]-1,2,4-triazol-3-amine]
≥ 80%: pest or weed control at 200 ppm (Phakopsora pachyrhizi) | inhibition of growth at 20 ppm [1] | pest or weed control at 200 ppm [2] | pest or weed control at 200 ppm [3]

FC(F)(F)c1nc(-c2ccc(Cn3cnnc3)cc2)no1 [Compound 1.226, 3-[4-(1,2,4-triazol-4-ylmethyl)phenyl]-5-(trifluoromethyl)-1,2,4-oxadiazole]
≥ 80%: pest or weed control at 200 ppm (Phakopsora pachyrhizi) | inhibition of growth at 20 ppm [1] | pest or weed control at 200 ppm [2] | pest or weed control at 200 ppm [3]
